Measurements from a melting point compilation (Tetko et al.; mined from patent text by program, amines drawn as free bases though some values may be those of a salt).

SMILES	melting point [°C]
COc1cc(C(=O)NC2CC(C)(C)N(C)C(C)(C)C2)ccc1-c1cc2cc(Cl)c(Cl)cc2[nH]1	260
CCCCCN1C(=O)C(O)(c2cc3c(cc2O)OCO3)c2ccncc21 (configuration not stated)	193 to 195
COC(=O)c1ccc(SC)c(C(F)(F)F)c1	76 to 77
COc1c(Cl)ccc(-c2cc(N)c(Cl)c(C(=O)NOCc3cncs3)n2)c1F	179 to 181
Nc1cc(CCC(=O)Nc2ccc(Cl)cc2Cl)ccc1O	130 to 131
C=CCSC(=NC(=O)OC)NC(=O)Nc1ccc(C)cc1	103 to 105
COc1cc(C=CC(=O)C(C)C(=O)C=Cc2ccc(O)c(OC)c2)ccc1O (configuration not stated)	180 to 183
CSc1cc(C)nc(SC)c1NC(=O)CCCCCSc1nc2ccccc2s1	123 to 125
CCCC(CCC)n1c(CC)nc2c1c(=O)n(C)c(=O)n2Cc1ccc(OC)cc1	120 to 122
CC(C)Oc1ncnc2c(O)ccc(Cl)c12	126
COC(=O)c1sc(OC)c(Br)c1O	107 to 109
CCOc1cc(N)c([N+](=O)[O-])cc1C(=O)OC	210
COc1cccc2c1NCn1cc(CO)cc1-2	137 to 138
CC(=O)N1CCC(C)(C)c2cc(F)cc(CCN3CCN(c4nsc5ccc(F)cc45)CC3)c21	128
COc1cc(C(O)c2ccnn2C)c(Cl)c(Cl)c1OC (configuration not stated)	149 to 154
O=C(CO)c1ccc(C(F)(F)F)cc1	112 to 114
CCc1c(C(=O)NNC(=O)C(O)c2cc(F)cc(F)c2)ccc(O)c1C (configuration not stated)	187
CC(Br)c1ccc2occ(C#N)c(=O)c2c1 (configuration not stated)	162 to 164
COc1cc(Nc2nccc(-c3ccc(N4CCNCC4)nc3)n2)cc(OC)c1	176 to 177
CCn1ncc2c1ncc1c(=O)n3nccc3n(CCC(C)C)c12	167 to 168
CN(C)c1nc(O)cc(O)n1	> 300
CCc1c(C)c(=O)oc2cc(O)ccc12	184
CCCCCCCCCCCCCCOC(=O)CCC(=O)CCC(=O)OCC	43
Nc1ncc(Oc2ccc(Cl)cc2)c(N2CCOCC2)n1	138 to 140
CCOC(=O)c1cc2c([nH]1)CCCC2	70 to 72
CCOC1=Nc2ccc(Cl)cc2C(c2ccccc2Cl)=NC1OC (configuration not stated)	110 to 113
CNC(=O)c1ccc(N(CC(=O)OC(C)(C)C)C(=O)OC(C)(C)C)cc1	164 to 166

SMILES	melting point [°C]
CCCOc1ccc(S(=O)(=O)N2CCN(CC)CC2)cc1-c1nc2cc(Cl)c([N+](=O)[O-])cc2c(=O)[nH]1	239 to 241
CCCCCCCCCCCCC1CC(=O)N(NC(=O)CCc2cc(C(C)(C)C)c(O)c(C(C)(C)C)c2)C1=O (configuration not stated)	55 to 60
COc1cccc(C2(CNC(=O)Nc3c(C(C)C)cc(N)cc3C(C)C)CCN(c3ccccc3O)CC2)c1	207 to 208
CCc1ncc(CCCO)n1C	69 to 71
COC(=O)CCC#Cc1ccc(C(F)(F)F)cc1N	42
C=CCc1ccc(CCNC(=O)c2cc(Cl)ccc2OC)cc1S(N)(=O)=O	186 to 187
Nc1ncnc2c1ncn2OCC(O)COCP(=O)(O)O (configuration not stated)	218 to 221
CC(=O)NCC[C@@H]1CCc2ccc3nn(C)c(Br)c3c21	167 to 169
CNC(=O)Oc1ccc(N=Cc2ccccc2O)c(C)c1	156 to 157
Cc1nc(N)nc(N)c1-c1cc(Cl)ccc1Cl	226 to 228
COc1cc2c(cc1OC)C1(CNC(=O)C1)CC2=O (configuration not stated)	193 to 195
CN(C)c1ccc(S(=O)CCCCCC(=O)NO)cc1 (configuration not stated)	95 to 97
COc1cccc(-c2cc(NC(=O)CC(=O)C(F)(F)F)[nH]n2)c1	107 to 110
Cc1ccc(SCC(=O)O)o1	35 to 36
COc1cc(N(C)C)ccc1C(=O)NC1CCN(C(C)CC(C(=O)N(C)C)(c2ccccc2)c2ccccc2)CC1O (configuration not stated)	211
CCCn1nc(C)c2c1C1=NC(C)CN1C(C)=N2 (configuration not stated)	85 to 90
Cc1cc(NC(=O)CC#N)nc(C)n1	178
Cc1cnc2c(c1)COP(=S)(OC(C)C)O2 (configuration not stated)	96 to 98
CCCc1c(OCCCSCCC(=O)O)ccc(C(C)=O)c1O	90 to 92
COc1cc(C(C)=O)ccc1OCCN1CCN(c2n[nH]c3cc(Cl)ccc23)CC1	154 to 156
CC(C)(CO)CCCCCCCCCC(C)(C)CO	52 to 54
COC(=O)CCc1nc(CCc2ccc(CC(=O)OC)cc2)ccc1O	90 to 91
CC(C)(C)c1cc(C(C)(C)C)[nH]n1	191 to 193
OCC1OC(n2c(Br)nc3cc(Cl)c(Cl)cc32)C(O)C1O (configuration not stated)	169
COC(=O)c1c[nH]c2ccc(N)cc12	217 to 219
CNC(=O)NC(=O)C(CC1CCCC1)c1ccc(C(F)(F)F)c(F)c1 (configuration not stated)	187 to 189
CCCCCCCCCC(=O)Nc1ccc(S(=O)(=O)Nc2nnc(CC(=O)OCC)s2)cc1	89 to 90

Now from value to compound:

melting point [°C]	SMILES
129 to 130	CC1(CN2CCC(OCc3ccc(Cl)cc3)CC2)Cn2cc([N+](=O)[O-])nc2O1 (configuration not stated)
167 to 169	N#Cc1c(-c2ccccc2)cc(Cl)nc1Cl
220 to 222	CC(C)(NC(=O)C(O)C(N)Cc1ccc(S(C)(=O)=O)cc1)C(=O)O (configuration not stated)
118 to 119	CCOC(=O)CCC(=NOCc1ccc(OCc2nc(-c3ccccc3)oc2C)cc1)c1ccc(Oc2ccccc2)cc1
109	COc1ccccc1CN[C@H]1CCCN(CCCCCc2ccccc2)[C@H]1c1ccccc1 (relative stereo)
78 to 79	O=CNc1c(-c2ccccc2)sc2ccccc12
162 to 163	COc1ccc(N2CCN(c3c(C)c(C)c4c(c3C)C(OCc3ccc(C(=O)O)cc3)C(C)(C)O4)CC2)cc1 (configuration not stated)
161	COC(=O)c1c(Sc2ccc(OC)cc2)nc(-c2ccccc2)n1Cc1cc2c(cc1Cl)OCO2
289 to 290	O=C(O)c1ccccc1Sc1cccc2c1C(=O)NC2=O
128 to 129	CCCCCCc1c(C(F)(F)F)noc1NS(=O)(=O)c1ccccc1
171 to 172	CCOC(=O)c1ccc(NC(=O)C(c2ccc(Cl)cc2)c2ccc(Cl)cc2)cc1
114 to 116	C[C@H]1C(S(=O)(=O)c2ccccc2)C=C(Sc2ccccc2)CC[C@H]1O[Si](C)(C)C (some centres not stated)
202	CN(C)C(=O)C(c1ccccc1)(c1ccccc1)c1ncc[nH]1
123 to 124	CNC(=O)NCCCn1cc(Cn2ccnc2)c2ccccc21
148 to 149	CC(=O)NCc1ccc2ccn(C3CCN(CCc4ccc(Cl)cc4)CC3)c2c1
135 to 137	O=C(NCc1ccccn1)Nc1cc(N2CC(COc3ccccc3)CC2=O)ccn1 (configuration not stated)
82 to 85	Clc1ccccc1C=C(Cn1cncn1)C1(Cl)CC1
152 to 153	O=C(NCc1ccccc1)C1Cc2cc(Br)cc3[nH]c(=O)c(=O)n1c23 (configuration not stated)
195	O=S1(=O)c2cccc3cccc(c23)N1CCCCN1CCN(c2ccc(O)cc2)CC1
67 to 69	N#Cc1ccc(Oc2cccc(F)c2)cc1
142 to 145	COC(=O)C(C)=C(C)C(=O)N(C(=O)c1ccccc1)c1cc(OC)c(Cl)cc1F
147	CN(CCOc1ccc(C(N)=O)cc1)CCc1ccc(NS(C)(=O)=O)cc1
104 to 106	O=Cc1ccc(OCCn2ncc3ccccc3c2=O)cc1
230 to 232	O=C1N(Cc2nccnc2C(F)(F)F)c2ccccc2C12COc1cc3c(cc12)OCCO3 (configuration not stated)

melting point [°C]	SMILES
124 to 126	Cc1ccc(N=C2NCCN2)cc1NS(C)(=O)=O
268	CCOc1cc(-c2cc(C(F)(F)F)n3ncc(C(=O)Nc4cccc(S(=O)(=O)NC(C)(C)CO)c4)c3n2)ccc1C(F)(F)F
217 to 218	CCOC(=O)Nc1cc2c3ccccc3n(CC)c2cn1
264	Cn1cc(-c2cc(-c3cnc4[nH]ccc4c3)ccn2)n(-c2ccccc2)c1=O
218 to 219	Cc1nc2c(c3c1[nH]c1ccccc13)C(=O)CC(C)C2 (configuration not stated)
207 to 208	Cc1nc(NC(=O)c2cccc(C#N)c2)sc1C(=O)NCc1ccccc1
291 to 292	O=C(O)c1ccc(Cn2cnc3ccc(Cl)c(C(=O)O)c32)cc1
177 to 179	CCC(C)C(OCc1ccccc1)C1C(C(=O)NCC(=O)O)NC(C2CCCCC2)C1[N+](=O)[O-] (configuration not stated)
184 to 186	O=C1c2ccccc2-c2c1c1c(c(=O)n2CCCCNS(=O)(=O)c2ccccc2)C=CCC1
96 to 98	c1ccc2c(c1)[nH]c1c2nc2ncccn21
140 to 143	Cc1ccc(S(=O)(=O)n2c(I)cc3c(Br)ccnc32)cc1
75 to 78.5	O=C(On1nnc2ccccc21)c1ccccc1
201 to 203	Brc1c[nH]c2ccc(Nc3ncnc4cc(-c5ccccc5)sc34)cc12
129 to 130	COc1ccc(C(CCCCC(=O)NO)C2=C(C)C(=O)c3ccccc3C2=O)cc1 (configuration not stated)
69 to 71	CC(=O)OC(CCc1cc2cccnc2n(-c2cccc([N+](=O)[O-])c2)c1=O)c1ccncc1 (configuration not stated)
134 to 137	Cc1nc(COc2ccc3c(c2)[C@H](O)[C@H](Cc2cccnc2)CO3)ccc1Br (relative stereo)
160 to 162	COc1ccc(-c2cn(C)cc(-c3cccc(C(F)(F)F)c3)c2=O)cc1
123 to 126	COCC1CC(Cn2ccnc2)(c2ccc(Cl)cc2)N(C)O1 (configuration not stated)
126 to 127	O=C1c2ccccc2C(=O)N1C[C@H]1COc2cc(Cl)ccc2O1
151 to 153	O=C1N(Cc2csc(-c3ccc(C(F)(F)F)cc3)n2)c2ccccc2C12COc1cc3c(cc12)OCO3 (configuration not stated)
218 to 220	CCOc1ccc(-c2nc(-c3cccc(C(N)=NO)n3)cs2)cc1OCC
186 to 188	Cc1cccc2ncc(C(=O)Nc3ccccc3)c(=O)n12
164 to 165	CCN1CCCC1CNC(=O)c1cc(S(N)(=O)=O)cc2c1OC(C)C2 (configuration not stated)
206 to 210	Nc1nc2ccccc2c2c1ncn2CC1CCCCO1 (configuration not stated)
